Values after ≈ are worked out from the molar mass of the structure shown.
tested on: Plasmodium yoelii; experiment: Antiplasmodial activity against blood stage schizont Plasmodium yoelii; type: functional, organism-based; conditions: not given

| SMILES | IC50 |
| --- | --- |
| CN(C(=O)c1ccc2ncc(-c3ccc(C#N)cc3)n2c1)c1ccccc1 | > 10000 nM |
| CN(C(=O)c1ccc2ncc(-c3ccc(C(F)(F)F)cc3)n2c1)c1ccc(C#N)cc1 | 5400 nM |
| CN(C(=O)c1cn2c(-c3ccc(C(F)(F)F)cc3)cnc2cn1)c1ccc(C#N)nc1 | 3630 nM |
| Cc1ccc(N(C)C(=O)c2cn3c(-c4ccc(C(F)(F)F)cc4)cnc3cn2)nn1 | > 10000 nM |
| CN(C(=O)c1cn2c(-c3ccc(C(F)(F)F)cc3)cnc2cn1)c1nc2ccccc2s1 | > 10000 nM |
| CN(Cc1ccc(F)cc1)C(=O)c1cn2c(-c3ccc(C(F)(F)F)cc3)cnc2cn1 | > 10000 nM |
| CN1CCC(N(C)C(=O)c2cn3c(-c4ccc(C(F)(F)F)cc4)cnc3cn2)CC1 | > 10000 nM |
| CN(C(=O)c1cn2c(-c3ccc(-c4ccn[nH]4)cc3)cnc2cn1)c1ccc(C#N)cc1 | 46 nM |
| CN(C(=O)c1cn2c(-c3ccc(-c4nnc(N)s4)cc3)cnc2cn1)c1ccc(C#N)cc1 | 19 nM |

Continued, values first:

| IC50 | SMILES |
| --- | --- |
| 160 nM | CN(C(=O)c1cn2c(-c3ccc(C(F)(F)F)cc3)cnc2cn1)c1ccc(C#N)cc1 |
| 200 nM | CN(C(=O)c1cn2c(-c3ccc(C(F)(F)F)cc3)cnc2cn1)c1ccc(Cl)nc1 |
| 62 nM | CN(C(=O)c1cn2c(-c3ccc(C(N)=O)cc3)cnc2cn1)c1ccc(F)cc1 |
| 290 nM | CNC(=O)c1ccc(-c2cnc3cnc(C(=O)N(C)c4ccc(C#N)cc4)cn23)cc1 |
| 36 nM | CNC(=O)c1ccc(-c2cnc3cnc(C(=O)N(C)c4ccc(Cl)cc4)cn23)cc1 |

tested on: Plasmodium berghei; experiment: Antimalarial activity against Plasmodium berghei infected in mouse assessed as animal protection at 30 mg/kg, po by causal prophylactic activity assay relative to untreated control; type: functional; conditions: not given

| SMILES | Activity |
| --- | --- |
| CN(C(=O)c1cn2c(-c3ccc(C(N)=O)cc3)cnc2cn1)c1ccc(F)cc1 | 80% |
| CNC(=O)c1ccc(-c2cnc3cnc(C(=O)N(C)c4ccc(C#N)cc4)cn23)cc1 | 80% |

tested on: not listed separately; experiment: AUC in mouse at 20 mg/kg, po; type: ADME, organism-based; set-up: dose 20 mg/kg, route oral; conditions: plasma

| AUC | SMILES |
| --- | --- |
| 0.12 µM·h | CN(C(=O)c1cn2c(-c3ccc(-c4nnc(N)s4)cc3)cnc2cn1)c1ccc(C#N)cc1 |
| 11.1 µM·h | CN(C(=O)c1cn2c(-c3ccc(C(N)=O)cc3)cnc2cn1)c1ccc(F)cc1 |
| 12.4 µM·h | CNC(=O)c1ccc(-c2cnc3cnc(C(=O)N(C)c4ccc(C#N)cc4)cn23)cc1 |
| 31.2 µM·h | CNC(=O)c1ccc(-c2cnc3cnc(C(=O)N(C)c4ccc(Cl)cc4)cn23)cc1 |

tested on: not listed separately; experiment: Solubility of the compound at pH 6.8 by HT-equilibrium solubility assay; type: physicochemical; conditions: buffer

| solubility thermodynamic | SMILES |
| --- | --- |
| 9 µM (≈ 3.79 µg/mL) | CN(C(=O)c1cn2c(-c3ccc(C(F)(F)F)cc3)cnc2cn1)c1ccc(C#N)cc1 |
| < 5 µM | CN(C(=O)c1cn2c(-c3ccc(-c4nnc(N)s4)cc3)cnc2cn1)c1ccc(C#N)cc1 |
| 170 µM (≈ 66.2 µg/mL) | CN(C(=O)c1cn2c(-c3ccc(C(N)=O)cc3)cnc2cn1)c1ccc(F)cc1 |
| 430 µM (≈ 176 µg/mL) | CNC(=O)c1ccc(-c2cnc3cnc(C(=O)N(C)c4ccc(C#N)cc4)cn23)cc1 |
| 820 µM (≈ 344 µg/mL) | CNC(=O)c1ccc(-c2cnc3cnc(C(=O)N(C)c4ccc(Cl)cc4)cn23)cc1 |

tested on: Plasmodium cynomolgi; experiment: Antiplasmodial activity against schizont liver stage Plasmodium cynomolgi; type: functional, organism-based; conditions: not given

| SMILES | IC50 |
| --- | --- |
| CN(C(=O)c1cn2c(-c3ccc(-c4ccn[nH]4)cc3)cnc2cn1)c1ccc(C#N)cc1 | 300 nM |
| CN(C(=O)c1cn2c(-c3ccc(-c4nnc(N)s4)cc3)cnc2cn1)c1ccc(C#N)cc1 | 40 nM |

Results, then the molecule that gave them:

| IC50 | SMILES |
| --- | --- |
| 120 nM | CN(C(=O)c1cn2c(-c3ccc(C(F)(F)F)cc3)cnc2cn1)c1ccc(C#N)cc1 |
| 190 nM | CN(C(=O)c1cn2c(-c3ccc(C(N)=O)cc3)cnc2cn1)c1ccc(F)cc1 |
| 81 nM | CNC(=O)c1ccc(-c2cnc3cnc(C(=O)N(C)c4ccc(C#N)cc4)cn23)cc1 |
| 105 nM | CNC(=O)c1ccc(-c2cnc3cnc(C(=O)N(C)c4ccc(Cl)cc4)cn23)cc1 |

tested on: not listed separately; experiment: Half life in mouse at 20 mg/kg, po; type: ADME, organism-based; set-up: dose 20 mg/kg, route oral; conditions: in vivo

| half-life | SMILES |
| --- | --- |
| 3.39 h | CN(C(=O)c1cn2c(-c3ccc(-c4nnc(N)s4)cc3)cnc2cn1)c1ccc(C#N)cc1 |
| 1.35 h | CN(C(=O)c1cn2c(-c3ccc(C(N)=O)cc3)cnc2cn1)c1ccc(F)cc1 |
| 1.63 h | CNC(=O)c1ccc(-c2cnc3cnc(C(=O)N(C)c4ccc(C#N)cc4)cn23)cc1 |
| 3.63 h | CNC(=O)c1ccc(-c2cnc3cnc(C(=O)N(C)c4ccc(Cl)cc4)cn23)cc1 |

tested on: not listed separately; experiment: Volume of distribution at steady state in mouse at 5 mg/kg, iv; type: ADME, organism-based; set-up: dose 5 mg/kg, route intravenous; conditions: in vivo, read-out: Vdss

| Vd | SMILES |
| --- | --- |
| 0.99 L/kg | CN(C(=O)c1cn2c(-c3ccc(-c4nnc(N)s4)cc3)cnc2cn1)c1ccc(C#N)cc1 |
| 0.9 L/kg | CN(C(=O)c1cn2c(-c3ccc(C(N)=O)cc3)cnc2cn1)c1ccc(F)cc1 |
| 1.02 L/kg | CNC(=O)c1ccc(-c2cnc3cnc(C(=O)N(C)c4ccc(C#N)cc4)cn23)cc1 |
| 0.96 L/kg | CNC(=O)c1ccc(-c2cnc3cnc(C(=O)N(C)c4ccc(Cl)cc4)cn23)cc1 |

tested on: not listed separately; experiment: Oral bioavailability in mouse at 20 mg/kg; type: ADME, organism-based; conditions: in vivo

| bioavailability | SMILES |
| --- | --- |
| 0.24% | CN(C(=O)c1cn2c(-c3ccc(-c4nnc(N)s4)cc3)cnc2cn1)c1ccc(C#N)cc1 |
| 51.6% | CN(C(=O)c1cn2c(-c3ccc(C(N)=O)cc3)cnc2cn1)c1ccc(F)cc1 |
| 51.9% | CNC(=O)c1ccc(-c2cnc3cnc(C(=O)N(C)c4ccc(C#N)cc4)cn23)cc1 |
| 60% | CNC(=O)c1ccc(-c2cnc3cnc(C(=O)N(C)c4ccc(Cl)cc4)cn23)cc1 |

tested on: not listed separately; experiment: Hepatic extraction ratio in mouse liver microsomes by LC/MS analysis; type: ADME; conditions: read-out: ERH

| hepatic extraction ratio | SMILES |
| --- | --- |
| 0.4 | CN(C(=O)c1cn2c(-c3ccc(C(F)(F)F)cc3)cnc2cn1)c1ccc(C#N)cc1 |
| 0.52 | CN(C(=O)c1cn2c(-c3ccc(C(N)=O)cc3)cnc2cn1)c1ccc(F)cc1 |
| 0.33 | CNC(=O)c1ccc(-c2cnc3cnc(C(=O)N(C)c4ccc(C#N)cc4)cn23)cc1 |
| 0.49 | CNC(=O)c1ccc(-c2cnc3cnc(C(=O)N(C)c4ccc(Cl)cc4)cn23)cc1 |

tested on: not listed separately; experiment: Tmax in mouse at 20 mg/kg, po; type: ADME, organism-based; set-up: dose 20 mg/kg, route oral; conditions: in vivo

| Tmax | SMILES |
| --- | --- |
| 1.7 h | CN(C(=O)c1cn2c(-c3ccc(-c4nnc(N)s4)cc3)cnc2cn1)c1ccc(C#N)cc1 |
| 0.5 h | CN(C(=O)c1cn2c(-c3ccc(C(N)=O)cc3)cnc2cn1)c1ccc(F)cc1 |
| 0.5 h | CNC(=O)c1ccc(-c2cnc3cnc(C(=O)N(C)c4ccc(C#N)cc4)cn23)cc1 |
| 0.5 h | CNC(=O)c1ccc(-c2cnc3cnc(C(=O)N(C)c4ccc(Cl)cc4)cn23)cc1 |

tested on: Plasmodium cynomolgi; experiment: Antiplasmodial activity against hypnozoite liver stage Plasmodium cynomolgi; type: functional, organism-based; conditions: not given

| SMILES | IC50 |
| --- | --- |
| CN(C(=O)c1ccc2ncc(-c3ccc(C#N)cc3)n2c1)c1ccccc1 | > 10000 nM |
| CN(C(=O)c1ccc2ncc(-c3ccc(C(F)(F)F)cc3)n2c1)c1ccc(C#N)cc1 | > 10000 nM |
| CN(C(=O)c1cn2c(-c3ccc(-c4ccn[nH]4)cc3)cnc2cn1)c1ccc(C#N)cc1 | 300 nM |
| CN(C(=O)c1cn2c(-c3ccc(-c4nnc(N)s4)cc3)cnc2cn1)c1ccc(C#N)cc1 | 60 nM |

Other lines, results leading:

| IC50 | SMILES |
| --- | --- |
| 810 nM | CN(C(=O)c1cn2c(-c3ccc(C(F)(F)F)cc3)cnc2cn1)c1ccc(C#N)cc1 |
| 260 nM | CN(C(=O)c1cn2c(-c3ccc(C(N)=O)cc3)cnc2cn1)c1ccc(F)cc1 |
| 94 nM | CNC(=O)c1ccc(-c2cnc3cnc(C(=O)N(C)c4ccc(C#N)cc4)cn23)cc1 |
| 196 nM | CNC(=O)c1ccc(-c2cnc3cnc(C(=O)N(C)c4ccc(Cl)cc4)cn23)cc1 |

tested on: not listed separately; experiment: Half life in mouse liver microsomes by LC/MS analysis; type: ADME; conditions: not given

| half-life | SMILES |
| --- | --- |
| 1.37 h | CN(C(=O)c1cn2c(-c3ccc(C(F)(F)F)cc3)cnc2cn1)c1ccc(C#N)cc1 |
| 0.95 h | CN(C(=O)c1cn2c(-c3ccc(C(N)=O)cc3)cnc2cn1)c1ccc(F)cc1 |
| 2.08 h | CNC(=O)c1ccc(-c2cnc3cnc(C(=O)N(C)c4ccc(C#N)cc4)cn23)cc1 |
| 1.05 h | CNC(=O)c1ccc(-c2cnc3cnc(C(=O)N(C)c4ccc(Cl)cc4)cn23)cc1 |

tested on: Plasmodium falciparum; experiment: Antiplasmodial activity against schizont blood stage Plasmodium falciparum; type: functional, organism-based; conditions: not given

| SMILES | IC50 |
| --- | --- |
| CN(C(=O)c1ccc2ncc(-c3ccc(C#N)cc3)n2c1)c1ccccc1 | 600 nM |
| CN(C(=O)c1ccc2ncc(-c3ccc(C(F)(F)F)cc3)n2c1)c1ccc(C#N)cc1 | 11 nM |
| CN(C(=O)c1cn2c(-c3ccc(C(F)(F)F)cc3)cnc2cn1)c1ccc(C#N)nc1 | 1630 nM |
| Cc1ccc(N(C)C(=O)c2cn3c(-c4ccc(C(F)(F)F)cc4)cnc3cn2)nn1 | > 10000 nM |
| CN(C(=O)c1cn2c(-c3ccc(C(F)(F)F)cc3)cnc2cn1)c1nc2ccccc2s1 | 9580 nM |
| CN(Cc1ccc(F)cc1)C(=O)c1cn2c(-c3ccc(C(F)(F)F)cc3)cnc2cn1 | > 10000 nM |
| CN1CCC(N(C)C(=O)c2cn3c(-c4ccc(C(F)(F)F)cc4)cnc3cn2)CC1 | > 10000 nM |
| CN(C(=O)c1cn2c(-c3ccc(-c4ccn[nH]4)cc3)cnc2cn1)c1ccc(C#N)cc1 | 32 nM |
| CN(C(=O)c1cn2c(-c3ccc(-c4nnc(N)s4)cc3)cnc2cn1)c1ccc(C#N)cc1 | 22 nM |

Second part, the molecule after the results:

| IC50 | SMILES |
| --- | --- |
| 63 nM | CN(C(=O)c1cn2c(-c3ccc(C(F)(F)F)cc3)cnc2cn1)c1ccc(C#N)cc1 |
| 275 nM | CN(C(=O)c1cn2c(-c3ccc(C(F)(F)F)cc3)cnc2cn1)c1ccc(Cl)nc1 |
| 56 nM | CN(C(=O)c1cn2c(-c3ccc(C(N)=O)cc3)cnc2cn1)c1ccc(F)cc1 |
| 131 nM | CNC(=O)c1ccc(-c2cnc3cnc(C(=O)N(C)c4ccc(C#N)cc4)cn23)cc1 |
| 58 nM | CNC(=O)c1ccc(-c2cnc3cnc(C(=O)N(C)c4ccc(Cl)cc4)cn23)cc1 |

tested on: not listed separately; experiment: Half life in mouse at 5 mg/kg, iv; type: ADME, organism-based; set-up: dose 5 mg/kg, route intravenous; conditions: in vivo

| half-life | SMILES |
| --- | --- |
| 2.12 h | CN(C(=O)c1cn2c(-c3ccc(-c4nnc(N)s4)cc3)cnc2cn1)c1ccc(C#N)cc1 |
| 0.62 h | CN(C(=O)c1cn2c(-c3ccc(C(N)=O)cc3)cnc2cn1)c1ccc(F)cc1 |
| 0.42 h | CNC(=O)c1ccc(-c2cnc3cnc(C(=O)N(C)c4ccc(C#N)cc4)cn23)cc1 |
| 0.83 h | CNC(=O)c1ccc(-c2cnc3cnc(C(=O)N(C)c4ccc(Cl)cc4)cn23)cc1 |

tested on: not listed separately; experiment: Cmax in mouse at 20 mg/kg, po; type: ADME, organism-based; set-up: dose 20 mg/kg, route oral; conditions: in vivo

| Cmax | SMILES |
| --- | --- |
| 0.02 µM | CN(C(=O)c1cn2c(-c3ccc(-c4nnc(N)s4)cc3)cnc2cn1)c1ccc(C#N)cc1 |
| 8.3 µM | CN(C(=O)c1cn2c(-c3ccc(C(N)=O)cc3)cnc2cn1)c1ccc(F)cc1 |
| 5.2 µM | CNC(=O)c1ccc(-c2cnc3cnc(C(=O)N(C)c4ccc(C#N)cc4)cn23)cc1 |
| 20.5 µM | CNC(=O)c1ccc(-c2cnc3cnc(C(=O)N(C)c4ccc(Cl)cc4)cn23)cc1 |

tested on: not listed separately; experiment: Clearance in mouse at 5 mg/kg, iv; type: ADME, organism-based; set-up: dose 5 mg/kg, route intravenous; conditions: in vivo

| clearance | SMILES |
| --- | --- |
| 16.2 mL/min/kg | CN(C(=O)c1cn2c(-c3ccc(-c4nnc(N)s4)cc3)cnc2cn1)c1ccc(C#N)cc1 |
| 39.7 mL/min/kg | CN(C(=O)c1cn2c(-c3ccc(C(N)=O)cc3)cnc2cn1)c1ccc(F)cc1 |
| 34 mL/min/kg | CNC(=O)c1ccc(-c2cnc3cnc(C(=O)N(C)c4ccc(C#N)cc4)cn23)cc1 |
| 19.3 mL/min/kg | CNC(=O)c1ccc(-c2cnc3cnc(C(=O)N(C)c4ccc(Cl)cc4)cn23)cc1 |
